Experiment [1] addresses T1, Sodium/glucose cotransporter 2 (Homo sapiens, UniProt P31639).
T1 sequence (P31639 whole entry): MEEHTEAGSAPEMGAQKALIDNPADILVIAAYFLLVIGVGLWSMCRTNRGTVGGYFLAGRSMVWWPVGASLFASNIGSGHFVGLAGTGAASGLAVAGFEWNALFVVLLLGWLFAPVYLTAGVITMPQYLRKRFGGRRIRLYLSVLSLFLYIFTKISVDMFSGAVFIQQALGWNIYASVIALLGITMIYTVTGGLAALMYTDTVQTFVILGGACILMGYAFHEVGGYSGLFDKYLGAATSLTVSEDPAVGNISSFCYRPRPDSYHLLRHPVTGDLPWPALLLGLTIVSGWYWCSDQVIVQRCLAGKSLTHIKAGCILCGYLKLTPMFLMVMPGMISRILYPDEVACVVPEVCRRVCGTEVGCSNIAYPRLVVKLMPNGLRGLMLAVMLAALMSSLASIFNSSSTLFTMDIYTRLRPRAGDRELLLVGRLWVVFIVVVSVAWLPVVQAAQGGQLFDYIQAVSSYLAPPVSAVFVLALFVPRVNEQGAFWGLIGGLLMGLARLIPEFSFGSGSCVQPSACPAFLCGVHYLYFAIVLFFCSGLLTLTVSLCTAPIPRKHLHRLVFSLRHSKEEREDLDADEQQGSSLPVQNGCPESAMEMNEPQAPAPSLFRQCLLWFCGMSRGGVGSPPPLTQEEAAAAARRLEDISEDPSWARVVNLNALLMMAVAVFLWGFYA
The experiment can be described thus: Inhibition of human SGLT2 expressed in CHO cells assessed as inhibition of [14C]-alpha-methyl-D-glucopyranoside transport after 60 mins by scintillation counting. The class given is cell-based.

Experiment [2] deals with T2, Sodium/glucose cotransporter 1 (Homo sapiens, UniProt P13866).
T2 sequence (P13866 whole entry): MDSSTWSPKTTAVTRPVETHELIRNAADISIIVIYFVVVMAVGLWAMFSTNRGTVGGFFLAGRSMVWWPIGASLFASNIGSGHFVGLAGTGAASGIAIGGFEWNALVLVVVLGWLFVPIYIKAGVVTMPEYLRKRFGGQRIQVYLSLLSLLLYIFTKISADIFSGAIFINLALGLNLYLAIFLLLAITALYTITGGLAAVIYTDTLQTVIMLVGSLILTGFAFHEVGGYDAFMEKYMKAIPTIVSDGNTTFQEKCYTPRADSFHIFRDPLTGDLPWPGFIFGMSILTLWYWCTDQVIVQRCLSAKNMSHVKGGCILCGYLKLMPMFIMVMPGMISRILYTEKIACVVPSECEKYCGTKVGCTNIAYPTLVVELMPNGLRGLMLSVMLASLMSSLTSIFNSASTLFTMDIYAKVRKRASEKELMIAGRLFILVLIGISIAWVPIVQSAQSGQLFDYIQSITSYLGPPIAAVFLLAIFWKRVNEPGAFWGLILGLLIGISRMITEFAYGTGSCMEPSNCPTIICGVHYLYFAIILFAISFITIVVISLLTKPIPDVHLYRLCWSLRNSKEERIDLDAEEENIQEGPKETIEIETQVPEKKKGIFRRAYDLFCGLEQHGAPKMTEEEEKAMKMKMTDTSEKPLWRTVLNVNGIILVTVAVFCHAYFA
The experiment can be described thus: Inhibition of human SGLT1 expressed in CHO cells assessed as inhibition of [14C]-alpha-methyl-D-glucopyranoside transport after 60 mins by scintillation counting. It counts as cell-based.

In the case of `Cn1c(CN2C(=O)CSc3ccc(C(F)(F)F)cc32)nnc1SCc1ccc(Cl)cc1`, the IC50 (in general, the point on the concentration scale where inhibition reaches its midpoint) in experiment [1] came out at 1400 nM; in experiment [2], 7 µM.

The record behind these values is ChEMBL document CHEMBL1759842, “Discovery of non-glucoside SGLT2 inhibitors” (Bioorg Med Chem Lett, 2011).
